This is an account of results in US11320434B2, “Method and apparatus for rapid detection of SARS-CoV-2” (priority 2020, dated 2022).

Assay [1] concerns tetracysteine-containing peptide. The following applies: peptide-bound versus free FlAsH-EDT2; cited from earlier work.
Assay [2] concerns the target T1, K9K peptide ([…], SARS-CoV-2 spike protein position 1245 to 1255) (Severe acute respiratory syndrome coronavirus 2, UniProt P0DTC2).
T1 construct: purchased Innovagen AB
It is filed as binding.

SMILES strings stand for the structures. A value given as a limit tells only on which side of the number the result lay.

On to `O=C(O)c1ccccc1-c1c2ccc(=O)c([As]3SCCS3)c-2oc2c([As]3SCCS3)c(O)ccc12` [FlAsH, 2-(4,5-di(1,3,2-dithiarsolan-2-yl)-6-hydroxy-3-oxo-3H-xanthen-9-yl)benzoic acid], for which the “increase in fluorescence upon exchanging the EDTs for a tetracysteine-containing peptide” value in assay [1] is listed as “more than 50,000 times”. Moreover, in assay [2], the “change of fluorescence after heating the mixture” value was “more than doubled”, the “effect of a reducing agent on emitted fluorescence” value is on record as “can be enhanced”, the “emission of K9K-FlAsH versus FlAsH Control” value is “meaningfully greater” and the “emitted fluorescence versus Control at K9K dilutions” value is recorded as “meaningful increases over the Control”. Further, in assay [2], the “fluorescence after prior oxidation of K9K cysteine residues by DTNB (Curve 2)” value is “prevents generation of fluorescence”; the “fluorescence after treatment of oxidized K9K with TCEP (Curve 3)” value is given as “recovery of fluorescence”; the “fluorescence on treatment of peptide K9K with FlAsH (Curve 1)” value is “rapidly generate intense fluorescence emission”; the “fluorescence with TCEP and heating versus without TCEP or heating” value is “nearly six times greater”. For the same molecule, the “time at which emission of fluorescence begins” value in assay [2] was ≤ 15 s.
